Series [1] relates to Arabidopsis (Col) seeds. Put plainly: Arabidopsis seed germination/greening assay in presence of ABA. To be noted: for blocking of ABA inhibition of cotyledon greening: 30 μM pure compound. The format is in vivo. As for the experimental part: To evaluate and prioritize the 204 hits obtained, we examined their effects on ABA-mediated inhibition of Arabidopsis seed germination and seedling growth. Arabidopsis seeds germinate and produce photosynthetically active cotyledons within 4-days post imbibition under illumination. Low concentrations of ABA (i.e. 1 μM) inhibit both germination and seedling growth, which is easily quantified by image analysis of green pixel counts. This provides a simple test for ABA antagonists, as they will block the inhibitory effects of ABA on greening. We used this assay to characterize the 204 hit molecules. Greening experiments were performed in 96-well polystyrene petri plates using surface sterilized Arabidopsis (Col) seeds plated on to 0.7% agar medium containing ½-X MS salts, 0.5% sucrose, 1 μM ABA, and one of the 204 click reactions products (˜10 μM). After 4 days of stratification (4° C.), the plates were transferred to a growth chamber under continuous illumination and photographed 4 days later. Each experiment included ABA (1 μM ABA, no antagonist) and mock (no ABA) controls.
The OP-4-triazoles 48E9T, 49C10T, 49 Å2T, 1H6T and 6E4T were tested in Arabidopsis greening assays at 30 μM in presence or absence of 1 μM ABA using conditions described in Example 7. […] (FIG. 7).
Purified triazoles were evaluated for their ability to block the effects of exogenous ABA in inhibiting seed germination/greening, performed as described in Example 7 using the purified OP-4-peptidotriazole hits, PanMe, AA1, and OPZ at concentrations ranging from 200 nM to 50000 nM in triplicate in presence of 1 μM ABA. Seed germination was scored at the lowest concentration tested, while greening data (normalized to mock control) was fitted to log(inhibitor) vs. response-(variable slope) model using non-linear regression to infer the EC50S, using GraphPad Prism 6.0.

Series [2] addresses T1, PYR1 (Arabidopsis thaliana, UniProt O49686).
T1 construct: made in house
T1 sequence (O49686 1-191): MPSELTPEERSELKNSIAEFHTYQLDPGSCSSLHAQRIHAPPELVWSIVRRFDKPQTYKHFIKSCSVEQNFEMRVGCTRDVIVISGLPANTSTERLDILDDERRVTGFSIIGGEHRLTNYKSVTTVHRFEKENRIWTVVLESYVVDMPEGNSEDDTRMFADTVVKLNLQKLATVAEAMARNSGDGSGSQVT
Put plainly: ABA/receptor-mediated PP2C (ΔN-HAB1) phosphatase inhibition assay, PYR1. The format is biochemical. As to conditions: 100 nM PYR1, 25 nM ΔN-HAB1, 50 μM test compound, presence or absence of 5 μM ABA. As for the experimental part:
(§1) Prior to synthesizing a library of OP-4-triazoles we conducted model click reactions to establish the feasibility and efficiency of using unpurified reaction mixtures directly in ABA receptor activation assays. These reactions were performed using OPZ and 4-ethynyltoluene as follows: we mixed OPZ (4 uL, 25 mM), alkyne (10 uL, 10 mM), sodium ascorbate (2 uL, 20 mM), BTTA (2 uL, 20 mM) and copper(II) sulphate (2 uL, 10 mM) in a 200 μL PCR tube and incubated the reaction at 37° C. for 48 hr. The reaction was monitored using TLC. In parallel, we ran a scaled-up synthesis of the triazole using similar ratios of the reagents and conditions, followed by precipitation of the product by the addition of 2N HCl and subsequent filtration to yield triazole T1 from 4-ethynyltoluene as white powder in quantitative yields. The purified triazole and unpurified click reaction were both tested in receptor-mediated phosphatase inhibition assays. […] Reactions were mixed and equilibrated for 20 minutes, substrate (4-methylumbelliferyl phosphate, 1 mM final) was added, and fluorescence data were collected (λ, exc=360 nm, λ emm=460 nm) using a Tecan Infinite F200 Pro fluorimeter. PP2C activity was calculated relative to solvent-only control wells (i.e. receptors and PP2C in assay buffer, but no test compound); compounds were tested in duplicate. […]

The nature of series [3]: Light sensitivity of the isolated product. Type of series: physicochemical. To be noted: isolated solid, stored at −20° C. As for the experimental part: 142-(4-Azido-3,5-dicyclopropylphenyl)acetylaminolcyclohexanecarboxylic acid (2b; OPZ) To a solution of 2a (0.4 g, 1.01 mmoles, 1 equiv) in methanol/water 20 mL (1:1 v/v) was added lithium hydroxide (0.48 g, 20.2 mmoles, 20 equiv) and stirred at RT for 24 hr. After completion of the reaction (TLC), 2N HCl was added to the reaction mixture to precipitate the product as a white solid in near quantitative yields.

The subject of series [4] is Arabidopsis seeds. Put plainly: Thermoinhibition of seed germination assay. Type of series: in vivo. To be noted: 0.2 μM to 50 μM, 37° C. in dark for 72 hrs. From the text:
Adverse environmental conditions during germination can affect dormancy in several species. For example, high temperatures during seed imbibition can prevent seed germination and induce a form of secondary seed dormancy in a process called thermoinhibition. Although thermoinhibtion is complex, elevated ABA levels induced by heat play a critical role, as evidenced by both the identification of ABA-deficient varieties of lettuce with reduced sensitivity to thermoinhibition and pharmacological experiments using fluridone, which disrupts ABA biosynthesis and thermoinhibition in many species. Chemicals that can counter this effect of heat stress could find use as seed treatments to ensure consistent germination under adverse conditions. […] 96 well polystyrene petri plates with surface sterilized Arabidopsis seeds plated on 0.7% agar medium containing ½-x MS salts, 0.5% sucrose, and doses spanning from 0.2 μM to 50 μM of different OP-4-peptidotriazoles, PanMe, AA1, OPZ and fluridone as a positive control. After 4 d of stratification at 4° C., the plates were transferred to an incubation chamber at 37° C. in dark for 72 hrs. After heat treatment, the plates were placed in dark in an incubation chamber at RT for 48 hrs and photographed.

Series [5] has as its system ABA receptors (PYR1, PYL4, PYL8). Put plainly: ABA receptor antagonism in vitro, statements not resolved by receptor (PYR1, PYL4, PYL8 panel). Type of series: biochemical, Arabidopsis. As for the experimental part: as §1
The subject of series [6] is Arabidopsis seedlings. Put plainly: Primary root growth assay in presence of ABA. The format is in vivo. To be noted: 5 and 10 μM, 10 μM ABA, 72 hrs. As for the experimental part: Purified triazoles were evaluated for their ability to block effects of exogenous ABA in inhibiting primary root growth in Arabidopsis seedlings. Arabidopsis seeds were surface sterilized and plated on 0.7% agar medium containing 1⁄2-x MS salts, 0.5% sucrose. After 4 d of stratification at 4° C., transferred to dark chamber for 48 hrs. 5-6 seedlings at this stage were transferred to chemical plates containing purified triazole hits, PanMe, AA1 and OPZ at 5 and 10 μM in triplicate in presence of 10 μM ABA. Additional ABA controls (10 μM ABA, no antagonist) were also performed to assess effects of ABA on growth in absence of antagonist and transferred to dark chamber at RT for 72 hrs. Root lengths were measured and normalized to mock controls (FIG. 13).

Series [7] concerns MAPKKK18 gene expression. Put plainly: MAPKKK18::Luc luciferase reporter assay of ABA induced gene expression. Type of series: in vivo, Arabidopsis thaliana. As to conditions: 25 μM test chemical, 25 μM ABA, 6 hr. As for the experimental part: ASV1E9T, PanMe, AA1 and OPZ were evaluated for their ability to block effects of exogenous ABA in inducing MAPKKK18 gene expression in Arabidopsis seedlings. Arabidopsis seeds (MAPKKKI8::Luc reporter line) were surface sterilized grown and plant growth liquid medium (½ Murashige and Skoog medium and 0.5% Sucrose) under 16 hour light and 8 hour dark conditions. 10 day old seedlings were transferred to new plant growth liquid medium with test chemical at 25 μM in presence of equimolar concentration of ABA and 100 μM luciferin. Luciferase assay image were taken by XYZ camera after 6 hr of treatments. The average luminescent intensity was quantified using ImageJ. Average intensity was calculated for quadruplicates and the error bars on graphs represent the standard error of mean. […] (FIG. 14)
On the technique in general: Reporter assays use an easily measured gene product as a stand-in for the process of interest.

For series [8], the system named is ABA receptors. To be noted: cited from earlier work.

The values that follow come from patent publication US11641857B2, “Unusually potent ABA receptor pan-antagonists” (The Regents of the University of California, priority 2019, dated 2023).

Entries after “also recorded” stand apart in the source; their conditions may differ.

Take `O=C(Cc1cc(C2CC2)c(-n2cc(CNC(=O)c3cnc4ccccc4n3)nn2)c(C2CC2)c1)NC1(C(=O)O)CCCCC1` [48E9T]: in series [1] (1 μM ABA), the “blocking of ABA inhibition of cotyledon greening” value is recorded as “highly effective in blocking the effects of ABA”.

Regarding `[N-]=[N+]=Nc1c(C2CC2)cc(CC(=O)NC2CCC(C(=O)O)CC2)cc1C1CC1` (stereo not shown) [OPZ, 142-(4-Azido-3,5-dicyclopropylphenyl)acetylaminolcyclohexanecarboxylic acid], the “effect on PYR1 in PP2C activity assay” value in series [2] is recorded as “weak partial PYR1 agonist/antagonist”. In addition, the light sensitivity result in series [3] was “extremely light sensitive”.

Consider fluridone, for which the “block of thermoinhibition of germination” value in series [4] was “blocks thermoinhibition at all concentrations tested”.

Consider `O=C(Cc1cc(C2CC2)c(-n2cc(CNC(=O)c3coc(Br)c3)nn2)c(C2CC2)c1)NC1CCC(C(=O)O)CC1` (stereo not shown) [49 Å2T], for which the “blocking of ABA inhibition of cotyledon greening” value in series [1] (1 μM ABA) is given as “highly effective in blocking the effects of ABA”. Besides, in series [4], the “block of thermoinhibition of germination” value is given as “block thermoinhibition”.

On to `O=C(Cc1cc(C2CC2)c(-n2cc(Cn3c(=O)oc4cc(Cl)ccc43)nn2)c(C2CC2)c1)NC1(C(=O)O)CCCCC1` [1H6T], for which, in series [5], the “receptor selectivity (pan vs selective antagonist)” value is recorded as “pan antagonist”. Further, in series [1] (30 μM), the phytotoxicity entry is on record as “possible phytotoxicity”. Moreover, the “blocking of ABA inhibition of cotyledon greening” value in series [1] (1 μM ABA) is recorded as “weakly active”.

Turning to `CC1=C[C@@H](OCC#Cc2ccc(C)cc2)CC(C)(C)[C@@]1(O)/C=C/C(C)=C\C(=O)O` [PanMe], in series [1] (200 nM to 50000 nM dose range), the phytotoxicity entry is listed as “phytotoxicity; also recorded: phytotoxic at higher concentrations”. Moreover, in series [1] (200 nM to 50000 nM, 1 μM ABA, triplicate), the “blocking of ABA inhibition of seed germination/greening” value is “blocks ABA's effects at lower concentrations”. In addition, the “block of thermoinhibition of germination” value in series [4] was “blocks thermoinhibition but its effects decreased at higher concentrations”. Moreover, in series [6], the “block of ABA inhibition of primary root growth” value was “weak effects”. Further, in series [7], the “block of ABA induced MAPKKK18::Luc gene expression” value is given as “less effective”. Moreover, in series [8], the “in vitro activity (literature antagonists)” value is given as “modest in vitro activity”.

In the case of `CCCCCCSC1=C(C)[C@](O)(/C=C/C(C)=C\C(=O)O)C(C)(C)CC1=O` [AS6], the “in vitro activity (literature antagonists)” value in series [8] is “modest in vitro activity”.

In the case of `Cc1cccc(C(=O)NCc2cn(-c3c(C4CC4)cc(CC(=O)NC4(C(=O)O)CCCCC4)cc3C3CC3)nn2)n1` [49C10T], the “blocking of ABA inhibition of cotyledon greening” value in series [1] (1 μM ABA) is reported as “highly effective in blocking the effects of ABA”.

Regarding `COc1ccc(-c2nc3ccccc3n2Cc2cn(-c3c(C4CC4)cc(CC(=O)NC4(C(=O)O)CCCCC4)cc3C3CC3)nn2)cc1` [6E4T], the “receptor selectivity (pan vs selective antagonist)” value in series [5] is reported as “PYR1-selective antagonist”. In series [1] (1 μM ABA), the “blocking of ABA inhibition of cotyledon greening” value is reported as “only weakly effective”.
